From patent US4257962A, “Derivatives of bicyclic lactols” (Chinoin Gyogyszer es Vegyeszeti Termekek Gyara Rt., priority 1977, dated 1981)

Test: Acute toxicity (LD50) in mice
Conditions: mouse, in vivo

Structure (SMILES): CCCCCOC1C[C@@H]2[C@@H](/C=C/[C@H](O)CCCCC)[C@H](O)C[C@@H]2O1 (single isomer, unassigned; (-)) [(-)-2,3,3aβ,6aβ-Tetrahydro-2-pentyloxy-5α-hydroxy-4β-(3β-hydroxy-oct-1-trans-enyl)-cyclopentano[b]furan]
- LD50: 700 mg/kg
